IC50 and Ki data for 31 compounds are collected here from patent US20250100993A1, “2-SUBSTITUTED THIAZOLE HSD17B13 INHIBITORS AND USES THEREOF” (Inipharm, Inc., priority 2022, published 2025).

Each structure is given as a SMILES string.

Chain of HSD17B13 (Q7Z5P4 20-300): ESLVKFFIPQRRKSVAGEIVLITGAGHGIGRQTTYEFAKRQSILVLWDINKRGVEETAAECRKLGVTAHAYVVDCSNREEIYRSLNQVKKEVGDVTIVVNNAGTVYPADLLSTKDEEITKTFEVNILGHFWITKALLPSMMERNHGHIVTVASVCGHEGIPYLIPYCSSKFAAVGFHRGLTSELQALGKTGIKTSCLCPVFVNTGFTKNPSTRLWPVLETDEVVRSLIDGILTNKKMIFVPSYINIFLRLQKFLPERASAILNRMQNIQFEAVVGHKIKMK

One assay addresses HSD17B13 (Homo sapiens (Human), UniProt Q7Z5P4). The experiment in a line: LC/MS estrone detection assay for HSD17B13 activity (estradiol to estrone). It is filed as biochemical. Particulars: estradiol substrate, LC-MS/MS estrone detection. On the procedure:
The liquid chromatography/mass spectrometry (LC/MS) estrone detection assay monitors the conversion of estradiol to estrone by HSD17B13. This assay was undertaken in a 96 wp format (Eppendorf deep well Plate 96/500) in an 80 μl reaction volume containing: 4 μM of Estradiol (E2; Cayman; Ser. No. 10/006,315), 6 mM NAD+(Sigma; #N0623) and 30 nM HSD17B13 enzyme (in-house; E. coli expressed His-tagged, purified, soluble protein) in a reaction containing 1M potassium phosphate buffer pH 7.4, with 0.5% vehicle (DMSO). Reactions were incubated for 2 hours at 26.5° C., and estradiol (E2) conversion to estrone (E1) was quantitated by LC-MS/MS based analyte detection for both E2 and E1 using LCMS grade reagents.
Reactions were terminated by the addition of two volumes of acetonitrile (MeCN; LCMS grade; CAS #75/05/8) containing deuterated (D4)-E1 used as internal standard (Clear Synth; #CS-T-54273; 500 ng/mL final concentration). Samples were applied to pre-prepared Bond Elut-C18 extraction cartridges (3 mL; Agilent; Ser. No. 12/102,028), washed and eluted in MeCN. Eluates were dried under nitrogen and re-suspended in 60% methanol (LCMS grade methanol; CAS #67/56/1) before submission for analysis. Aqueous linearity for E2 and E1 were included for quantification.
Analysis of samples was undertaken on a XBridge BEH C18 column (Waters; #186003033) using 0.1% Diethyl Amine in MeCN (mobile phase A; DEA CAS #109-89-7) and 0.1% Diethyl Amine in milli-Q water (mobile phase B) in a 3 min gradient allowing 25% B. Analytes were detected in negative mode using MRM analysis, with E2 having a RT of 1.85 min and E1 having a RT of 2 min. Activity of the enzyme, in the absence of NAD+, was used to evaluate specificity of conversion. Enzyme activity in the presence of test samples was expressed as a percentage of the uninhibited enzyme activity, and plotted versus inhibitor concentration. Non-linear regression was performed using a four-parameter logistic model and GraphPad Prism software (GraphPad Software, La Jolla, CA). All assessments were undertaken in duplicate evaluations and pooled during extraction process and subsequently injected as duplicates for LC-MS/MS analysis.
For the compound `O=C(Nc1ncc(C(=O)NCc2ccccc2C(F)(F)F)s1)c1cc(Cl)c(O)c(Cl)n1` [Example 28, 2-(4,6-dichloro-5-hydroxypicolinamido)-N-(2-(trifluoromethyl)benzyl)thiazole-5-carboxamide], the IC50 fell in the range of 1000 to 10000 nM.

The compound `Cc1nsc(NC(=O)c2cc(Cl)c(O)c(Cl)n2)c1C(=O)NCc1ccccc1OC(F)(F)F` [Example 29, 5-(4,6-dichloro-5-hydroxypicolinamido)-3-methyl-N-(2-(trifluoromethoxy)benzyl)isothiazole-4-carboxamide] came in with an IC50 of 100 to 500 nM.

The compound `O=C(Nc1scnc1C(=O)NCC12CC3CC(CC(C3)C1)C2)c1cc(Cl)c(O)c(Cl)n1` [Example 30, N-(adamantan-1-ylmethyl)-5-(4,6-dichloro-5-hydroxypicolinamido)thiazole-4-carboxamide] registered an IC50 of 100 to 500 nM.

For `O=C(Nc1scnc1C(=O)N1CCC2(CCCCC2)C1)c1cc(Cl)c(O)c(Cl)n1` [Example 31, N-(4-(2-azaspiro[4.5]decane-2-carbonyl)thiazol-5-yl)-4,6-dichloro-5-hydroxypicolinamide], the IC50 lay within 1000 to 10000 nM.

Turning to `O=C(Nc1scnc1C(=O)NC1(c2ccccc2)CCC1)c1cc(Cl)c(O)c(Cl)n1` [Example 32, 5-(4,6-dichloro-5-hydroxypicolinamido)-N-(1-phenylcyclobutyl)thiazole-4-carboxamide], the IC50 was no more than 100 nM.

The compound `O=C(Nc1scnc1C(=O)NCc1c(F)cccc1F)c1cc(Cl)c(O)c(Cl)n1` [Example 33, 5-(4,6-dichloro-5-hydroxypicolinamido)-N-(2,6-difluorobenzyl)thiazole-4-carboxamide] had an IC50 of 100 to 500 nM.

Consider `CC(C)(C)CCNC(=O)c1ncsc1NC(=O)c1cc(Cl)c(O)c(Cl)n1` [Example 35, 5-(4,6-dichloro-5-hydroxypicolinamido)-N-(3,3-dimethylbutyl)thiazole-4-carboxamide], for which the IC50 lay within 100 to 500 nM.

On to `O=C(Nc1scnc1C(=O)NCC1(F)CC1)c1cc(Cl)c(O)c(Cl)n1` [Example 36, 5-(4,6-dichloro-5-hydroxypicolinamido)-N-((1-fluorocyclopropyl)methyl)thiazole-4-carboxamide], for which the IC50 fell in the range of 1000 to 10000 nM.

Regarding `O=C(Nc1scnc1C(=O)NC1CCC2(CC1)CNC2)c1cc(Cl)c(O)c(Cl)n1` [Example 37, 5-(4,6-dichloro-5-hydroxypicolinamido)-N-(2-azaspiro[3.5]nonan-7-yl)thiazole-4-carboxamide], the IC50 is greater than 10000 nM.

Compound `Cc1nsc(NC(=O)c2cc(Cl)c(O)c(Cl)n2)c1C(=O)NCc1ccccc1C(F)(F)F` [Example 38, 5-(4,6-dichloro-5-hydroxypicolinamido)-3-methyl-N-(2-(trifluoromethyl)benzyl)isothiazole-4-carboxamide] registered an IC50 of no more than 100 nM.

Consider `CC(C)CCNC(=O)c1ncsc1NC(=O)c1cc(Cl)c(O)c(Cl)n1` [Example 39, 5-(4,6-dichloro-5-hydroxypicolinamido)-N-isopentylthiazole-4-carboxamide], for which the IC50 was 100 to 500 nM.

Consider `O=C(Nc1scnc1C(=O)NC12C[C@H]3C[C@@H](C1)C[C@@H](C2)C3)c1cc(Cl)c(O)c(Cl)n1` [Example 40, N-((3s,5s,7s)-adamantan-1-yl)-5-(4,6-dichloro-5-hydroxypicolinamido)thiazole-4-carboxamide], for which the IC50 was no more than 100 nM.

As to `O=C(Nc1scnc1C(=O)NCc1ccc2c(c1)OCO2)c1cc(Cl)c(O)c(Cl)n1` [Example 41, N-(benzo[d][1,3]dioxol-5-ylmethyl)-5-(4,6-dichloro-5-hydroxypicolinamido)thiazole-4-carboxamide], the IC50 is 100 to 500 nM.

As for `CS(=O)(=O)c1ccccc1CNC(=O)c1ncsc1NC(=O)c1cc(Cl)c(O)c(Cl)n1` [Example 42, 5-(4,6-dichloro-5-hydroxypicolinamido)-N-(2-(methylsulfonyl)benzyl)thiazole-4-carboxamide], the IC50 is 100 to 500 nM.

The compound `O=C(Nc1scnc1C(=O)NC1CCOc2ccccc21)c1cc(Cl)c(O)c(Cl)n1` (stereo not shown) [Example 43, N-(chroman-4-yl)-5-(4,6-dichloro-5-hydroxypicolinamido)thiazole-4-carboxamide] registered an IC50 of 100 to 500 nM.

The compound `O=C(Nc1scnc1C(=O)N1CCC(C(F)(F)F)CC1)c1cc(Cl)c(O)c(Cl)n1` [Example 44, 4,6-dichloro-5-hydroxy-N-(4-(4-(trifluoromethyl)piperidine-1-carbonyl)thiazol-5-yl)picolinamide] had an IC50 of 500 to 1000 nM.

Compound `CC(C)(C)CCNC(=O)c1ncsc1NC(=O)c1cc(Cl)c(O)c(Cl)c1` [Example 46, 5-(3,5-dichloro-4-hydroxybenzamido)-N-(3,3-dimethylbutyl)thiazole-4-carboxamide] displayed an IC50 of 100 to 500 nM.

`CC(C)n1cc(C(=O)NCc2ccccc2C(F)(F)F)c(NC(=O)c2cc(Cl)c(O)c(Cl)n2)n1` [Example 48, 4,6-dichloro-5-hydroxy-N-(1-isopropyl-4-((2-(trifluoromethyl)benzyl)carbamoyl)-1H-pyrazol-3-yl)picolinamide] came in with an IC50 of 100 to 500 nM.

In the case of `O=C(Nc1nn(CC(F)(F)F)cc1C(=O)NCc1ccccc1C(F)(F)F)c1cc(Cl)c(O)c(Cl)c1` [Example 49, 3-(3,5-dichloro-4-hydroxybenzamido)-1-(2,2,2-trifluoroethyl)-N-(2-(trifluoromethyl)benzyl)-1H-pyrazole-4-carboxamide], the IC50 is 100 to 500 nM.

`O=C(Nc1nn(CC(F)(F)F)cc1C(=O)NCc1ccccc1C(F)(F)F)c1cc(Cl)c(O)c(Cl)n1` [Example 50, 4,6-dichloro-5-hydroxy-N-(1-(2,2,2-trifluoroethyl)-4-((2-(trifluoromethyl)benzyl)carbamoyl)-1H-pyrazol-3-yl)picolinamide]: the IC50 lay within 100 to 500 nM.

Consider `O=C(Nc1sc(-c2cccnc2)nc1C(=O)NCc1ccccc1C(F)(F)F)c1cc(Cl)c(O)c(Cl)n1` [Example 51, 5-(4,6-dichloro-5-hydroxypicolinamido)-2-(pyridin-3-yl)-N-(2-(trifluoromethyl)benzyl)thiazole-4-carboxamide], for which the IC50 was 100 to 500 nM.

For the compound `O=C(Nc1cccnc1C(=O)NCc1ccccc1OC(F)(F)F)c1cc(Cl)c(O)c(Cl)n1` [Example 52, 4,6-dichloro-5-hydroxy-N-(2-((2-(trifluoromethoxy)benzyl)carbamoyl)pyridin-3-yl)picolinamide], the IC50 was in the range of 100 to 500 nM.

Take `Cn1cc(C(=O)NCCC(C)(C)C)c(NC(=O)c2cc(Cl)c(O)c(Cl)c2)n1` [Example 53, 3-(3,5-dichloro-4-hydroxybenzamido)-N-(3,3-dimethylbutyl)-1-methyl-1H-pyrazole-4-carboxamide]: the IC50 lay in the range of 500 to 1000 nM.

As to `O=C(Nc1nn(C2CC2)cc1C(=O)NCc1ccccc1C(F)(F)F)c1cc(Cl)c(O)c(Cl)n1` [Example 54, 4,6-dichloro-N-(1-cyclopropyl-4-((2-(trifluoromethyl)benzyl)carbamoyl)-1H-pyrazol-3-yl)-5-hydroxypicolinamide], the IC50 was 1000 to 10000 nM.

On to `O=C(Nc1nn(C(F)F)cc1C(=O)NCc1ccccc1C(F)(F)F)c1cc(Cl)c(O)c(Cl)c1` [Example 55, 3-(3,5-dichloro-4-hydroxybenzamido)-1-(difluoromethyl)-N-(2-(trifluoromethyl)benzyl)-1H-pyrazole-4-carboxamide], for which the IC50 fell in the range of 100 to 500 nM.

As for `O=C(Nc1cccc2c1c(=O)n(Cc1ccccc1C(F)(F)F)c(=O)n2C1CC1)c1cc(Cl)c(O)c(Cl)n1` [Example 56, 4,6-dichloro-N-(1-cyclopropyl-2,4-dioxo-3-(2-(trifluoromethyl)benzyl)-1,2,3,4-tetrahydroquinazolin-5-yl)-5-hydroxypicolinamide], the IC50 was in the range of 500 to 1000 nM.

Compound `O=C(Nc1ccc(-c2ccccc2)nc1C(=O)NCc1ccccc1OC(F)(F)F)c1cc(Cl)c(O)c(Cl)c1` [Example 57, 3-(3,5-dichloro-4-hydroxybenzamido)-6-phenyl-N-(2-(trifluoromethoxy)benzyl)picolin amide] yielded an IC50 of no more than 100 nM.

For the compound `O=C(Nc1ccc(-c2ccccc2)nc1C(=O)NCc1ccccc1OC(F)(F)F)c1cc(Cl)c(O)c(Cl)n1` [Example 58, 4,6-dichloro-5-hydroxy-N-(6-phenyl-2-((2-(trifluoromethoxy)benzyl)carbamoyl)pyridin-3-yl)picolinamide], the IC50 was no more than 100 nM.

Still in this assay, the particulars now being: estradiol substrate, LCMS; read-out: HSD17B13 Inhibition_Estradiol Substrate_LCMS: Ki.
As for `O=C(Nc1sc(-c2cc[nH]n2)nc1C(=O)NCc1ccccc1C(F)(F)F)c1cc(Cl)c(O)c(Cl)n1` [Example 71], the Ki was no more than 50 nM.

Regarding `O=C(Nc1sc(-c2ccccc2)nc1C(=O)NCC(F)(F)F)c1cc(Cl)c(O)c(Cl)n1` [Example 72], the Ki was in the range of 100 to 500 nM.

`O=C(Nc1sc(-c2ccc[nH]c2=O)nc1C(=O)NCc1ccccc1C(F)(F)F)c1cc(Cl)c(O)c(Cl)n1` [Example 74]: the Ki was no more than 50 nM.
